Results reported in patent US20250281497A1, “FUSED AMINO PYRIMIDINE COMPOUNDS FOR TREATMENT OF SEIZURE DISORDERS” (Ovid Therapeutics Inc., priority 2024, published 2025).

How the values were obtained:
KA induced SE = assay: KA induced ongoing SE, EEG recording, treatment 2h after KA; format: in vivo, mice; details: treatment 2h after KA
Method: EEG recordings and analysis. WT C57Bl/6J adult male mice (12 weeks) were anesthetized with isofluorane and implanted with EEG/EMG electrodes and allowed to recover for 7 days prior to experimentation. […] 2h following KA administration mice were injected with a saturating concentration of diazepam (DZ) 10 mg/kg (IP) and recordings were extended for a further 60 min. […] LabChart 8 software was used for data analysis. Epileptiform activity was identified by changes in the amplitude of electrographic activity characterized by consistent changes in the power of the Fast Fourier transform (FFT) of the EEG and abnormal activity characterized by periods of rhythmic spiking lasting longer than 30s (Moore et al., 2017, supra; Silayeva et al., 2015, supra; Sivakumaran et al., J. Neurosci. 35, 8291-8296 (2015)).
To evaluate the potential of KCC2 activators to terminate ongoing SE, the KA model described above was employed. Mice were injected with KA (20 mg/Kg; IP). […] Spectral data were then subjected to FFT and the total EEG power between 1-100 Hz of the 2h following KA treatment (pre-drug) and 30 min following their injection (post-drug) were compared (FIG. 6B). In mice treated with DZ alone variable effects were observed, from large increases to modest reductions in EEG power, but these effects were not significant (FIG. 6C; pre=1.1±0.2×10^−6, post=4.4±7.4×10^−7 μV^2, p=0.214, n=13-14 mice). […] The latency of the treatments to modify EEG power was examined by measuring the time taken for this parameter to be reduced to 50% (FIG. 6E). […] Finally in mice treated with DZ alone 62% were insensitive to the effects of this agent on EEG power.

[1] = design: species or system mice; details: in vivo
KCC2 = biological target: T1, KCC2 (Homo sapiens, UniProt Q9H2X9); assay: Cellular thermal shift assay (CETSA) in transfected HEK-293 cells; format: binding; details: 30 μM, 90 min, heated 37-58° C.
T1 construct: expressed in transfected cells; host or cells: HEK-293 (ATCC CRL-1573)
T1 sequence (Q9H2X9 1-1116 isoform Q9H2X9-2): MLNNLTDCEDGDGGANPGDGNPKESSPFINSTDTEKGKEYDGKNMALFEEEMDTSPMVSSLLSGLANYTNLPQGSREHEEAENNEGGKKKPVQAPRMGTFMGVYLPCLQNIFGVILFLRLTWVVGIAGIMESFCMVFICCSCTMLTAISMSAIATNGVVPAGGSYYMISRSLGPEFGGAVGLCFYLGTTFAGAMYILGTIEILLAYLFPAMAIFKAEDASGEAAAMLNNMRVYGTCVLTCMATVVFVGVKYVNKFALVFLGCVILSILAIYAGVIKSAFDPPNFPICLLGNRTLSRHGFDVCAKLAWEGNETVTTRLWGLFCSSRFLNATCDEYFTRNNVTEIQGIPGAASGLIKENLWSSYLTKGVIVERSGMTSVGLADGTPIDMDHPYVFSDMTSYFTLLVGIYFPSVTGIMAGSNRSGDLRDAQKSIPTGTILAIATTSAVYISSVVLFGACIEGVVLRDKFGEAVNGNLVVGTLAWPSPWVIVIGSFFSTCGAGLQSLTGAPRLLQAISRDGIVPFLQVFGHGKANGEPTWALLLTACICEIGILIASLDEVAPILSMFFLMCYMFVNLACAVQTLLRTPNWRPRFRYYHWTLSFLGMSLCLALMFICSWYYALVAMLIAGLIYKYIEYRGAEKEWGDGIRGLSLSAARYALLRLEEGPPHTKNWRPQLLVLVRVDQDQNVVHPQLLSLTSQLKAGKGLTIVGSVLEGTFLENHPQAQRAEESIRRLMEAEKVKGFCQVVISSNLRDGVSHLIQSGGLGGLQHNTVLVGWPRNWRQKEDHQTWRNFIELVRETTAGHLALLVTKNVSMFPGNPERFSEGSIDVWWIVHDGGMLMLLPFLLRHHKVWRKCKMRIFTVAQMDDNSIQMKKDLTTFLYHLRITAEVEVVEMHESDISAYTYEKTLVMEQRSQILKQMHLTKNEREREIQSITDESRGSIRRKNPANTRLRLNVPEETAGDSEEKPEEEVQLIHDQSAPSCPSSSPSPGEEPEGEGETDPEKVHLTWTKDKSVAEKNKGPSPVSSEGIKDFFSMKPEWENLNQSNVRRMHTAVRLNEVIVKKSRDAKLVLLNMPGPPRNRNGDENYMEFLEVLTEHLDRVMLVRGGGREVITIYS
Method: Determining if compounds in SSA directly interact with KCC2. This was tested using a cellular thermal shift assay (CETSA), which measures the ability of a drug to modify the thermal stability of its target in whole cells (Kawatkar et al., ACS Chem. Biol. 14, 1913-1920 (2019); Martinez et al., Sci Rep 8, 9472 (2018)).
2×10^6 transfected HEK-293 cells were incubated with 30 μM drug or vehicle for 90 min at 37° C. and then heated from 37-58° C. for 5 min. Cells were rapidly chilled to 25° C. and NP40 was added to a final concentration […] to snap freezing in liquid nitrogen. Following 5 freeze/thaw cycles lysates were centrifuged at 12,000×g to remove denatured proteins and associated cell debris.
Aliquots of HEK-293 cells expressing KCC2 were exposed to 30 μM SSA, heated from 37-55° C. The remaining level of soluble native KCC2 at each temperature was measured by immunoblotting and normalized to the level seen at 37° C. which was given a value of 1. […] This panel included protein kinase C isoforms, OSR1, SPAK (STK39) and with-no-lysine kinases (WNK), all of which phosphorylate KCC2 on multiple residues to indirectly modify its activity (Kahle et al., 2013, supra; Smalley et al., 2020, supra).

C[C@@H]1CN(c2nc3c(c(Nc4ccc(C5CCCCC5)cc4)n2)COC3)CCO1 [Compound A, (R)—N-(4-cyclohexylphenyl)-2-(2-methylmorpholino)-5,7-dihydrofuro[3,4-d]pyrimidin-4-amine]
mice insensitive to DZ effects on EEG power (KA induced SE): abolished
gross effects on mouse behavior, open field [1]: no gross effects on mouse behavior
thermal stability of KCC2 / direct binding (CETSA) (KCC2): capable of directly binding to KCC2
